Results as given in ChEMBL document CHEMBL5729192, “CD73 inhibitors” (2022).
pIC50: −log10 of the molar value.

Target: 5'-nucleotidase (Homo sapiens, UniProt P21589)
Experiment: Biochemical Assay: Assay Reaction ConditionsAssay Volume: 70 μlReaction Volume: 50 μlCD73: 0.3208 nMAMP: 15 μMAssay Buffer: 2 5 mM Tris-HCL, pH 7.4, 0.01% Brij-35, 0.01% BSA, 5 mM MgCl2Assay Procedure:Used 384 clear plate.Made dose titration of testing compounds in assay buffer, 10 points ½ log titrations in duplicates starting at 100 μM.Added 25 μl of CD73 to each well for a final concentration of 320 pM.Incubated at RT for 15 min.Added 25 μl of AMP to each well for a final concentration of 15 μM.Incubated at RT for 10 min.Added 10 μl of Malachite Green Reagent A, incubate at RT for 10 min.Added 10 μl of Malachite Green Reagent B, incubate at RT for 45 min.Read the Absorbance on Envision plate reader using excitation filter: Cy5 620 nM.

Chain of 5'-nucleotidase (P21589 whole entry): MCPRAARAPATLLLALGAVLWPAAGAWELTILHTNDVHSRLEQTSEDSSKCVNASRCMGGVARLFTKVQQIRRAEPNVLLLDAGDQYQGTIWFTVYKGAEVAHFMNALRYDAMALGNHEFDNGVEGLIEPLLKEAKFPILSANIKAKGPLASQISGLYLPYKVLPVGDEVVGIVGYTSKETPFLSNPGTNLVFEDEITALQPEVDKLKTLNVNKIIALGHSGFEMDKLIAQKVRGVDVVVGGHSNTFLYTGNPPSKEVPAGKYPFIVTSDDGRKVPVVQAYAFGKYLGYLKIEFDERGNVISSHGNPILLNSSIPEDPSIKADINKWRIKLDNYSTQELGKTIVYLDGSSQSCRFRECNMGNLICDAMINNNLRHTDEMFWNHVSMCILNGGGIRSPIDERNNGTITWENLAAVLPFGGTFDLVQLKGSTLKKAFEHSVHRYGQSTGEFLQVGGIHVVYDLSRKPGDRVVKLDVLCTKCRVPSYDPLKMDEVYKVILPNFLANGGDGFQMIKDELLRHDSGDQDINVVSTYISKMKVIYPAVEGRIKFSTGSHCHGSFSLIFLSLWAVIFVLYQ

| Compound | pIC50 |
| --- | --- |
| O=P(O)(O)COC[C@H]1O[C@@H](n2ncc3c(NCc4cccc(Cl)c4Cl)nc(Cl)nc32)[C@H](O)[C@@H]1O | > 6.30 |
| C[C@]1(O)C[C@@H](Nc2nc(Cl)nc3c2cnn3[C@@H]2O[C@H](COCP(=O)(O)O)[C@@H](O)[C@H]2O)C1 | > 6.30 |
| CNc1nc(Cl)nc2c1cnn2[C@@H]1O[C@H](COCP(=O)(O)O)[C@@H](O)[C@H]1O | > 6.30 |
